Laboratory results published in patent US4568490A, “Aminopropylaminobleomycin derivatives and process for preparation thereof” (Zaidan Hojin Biseibutsu Kagaku Kenkyu Kai, priority 1981, dated 1986).

Tests used:
[1] = system: Mycobacterium smegmatis ATCC 607; assay: Antimicrobial activity, agar plate-cylinder method; assay type: cell-based; settings: Cu-free form; bleomycin A2 (Cu-free form) standard assumed 1,000 mcg/mg
Method: (§1) The activity was assayed against the above test microorganisms by the method of agar plate-cylinder, assuming the potency of bleomycin A2 (Cu-free form), used as standard, to be 1,000 mcg/mg.

Bacillus subtilis = assay: Antimicrobial activity, agar plate-cylinder method; assay type: cell-based; settings: Cu-free form; bleomycin A2 (Cu-free form) standard assumed 1,000 mcg/mg
Method: (1) Antimicrobial activity against Mycobacterium smegmatis ATCC 697 and Bacillus subtilis.
as §1

Hela S3 cells = assay: Growth inhibitory activity against Hela S3 cells; assay type: cell-based; settings: Cu-free form; Hela S3, 3 days incubation with compound
Method: The percentage growth inhibition was calculated using the equation: […] wherein A is the ultimate number of cells on the third day from the addition of a test sample, B is the ultimate number of cells in the control (without the addition of test sample), and C is the number of cells on the day of addition of the test sample.

ICR strain mice = assay: Pulmonary toxicity (pulmonary fibrosis) in mice, intraperitoneal injection; assay type: in vivo; settings: 5 mg/kg i.p. once a day for 10 days; for Grade of pulmonary fibrosis, % / Incidence of pulmonary fibrosis, % / Incidence: number of mice suffering from pulmonary fibrosis / Grade: total score of pulmonary fibrosis/total number of test animal: autopsy after 5 weeks; for Incidence: number of mice suffering from pulmonary fibrosis: affected/total mice; for Grade: total score of pulmonary fibrosis/total number of test animal: score 0-6 points; for Grade of pulmonary fibrosis, Ratio / Incidence of pulmonary fibrosis, Ratio: reference of the ratio not stated
Method: (3) Pulmonary toxicity (pulmonary fibrosis) in mice.
ICR strain mice (male; 15 weeks old; 9 mice per group) were used. Each mouse was administered with a daily dose of 5 mg/kg of the test sample by intraperitoneal injection, once a day, for 10 consecutive days. After completion of the predetermined administration, the mice were kept for 5 weeks under observation, then slaughtered, and autopsied to examine the incidence and grade of pulmonary fibrosis. The evaluation was made by comparing the number of administered mice suffering from pulmonary fibrosis and the grade of the disease.
(§2) In Tables 4A and 4B, the grade was numerically rated as follows:
(§3) 1 point: Accumulation of exudate in pulmonary alveoli and fibrosis-like change in alveolar septum.
(§4) 2 points: Fibrosis in several areas.
(§5) 4 points: Scattered fibrosis.
(§6) 6 points: Fibrosis in more than two-thirds of the total area.

ICR mice = assay: Pulmonary toxicity (pulmonary fibrosis) in mice, intratracheal instillation; assay type: in vivo; settings: 16 μg/50 μl/mouse intratracheally, sacrificed 4 weeks after instillation; for Grade: total score of pulmonary fibrosis/total number of samples: score 0-6 points
Method: Male 15 weeks old ICR mice were used. Sixteen μg/50 μl/mouse of each test sample was intratracheally instilled. The mice were sacrificed 4 weeks after instillation to examine the incidence and grade of pulmonary fibrosis. The evaluation was made by comparing the number of administered mice suffering from pulmonary fibrosis and the grade of the disease.
as §2, §3, §4, §5, §6

SMILES | Antimicrobial potency of Cu--free compound, against Mycobacterium smegmatis ATCC 607 [1] | Antimicrobial potency of Cu--free compound, against Bacillus subtilis (Bacillus subtilis) | 50% growth inhibition concentration (ID50) of Cu--free compound against cultured Hela cell (Hela S3 cells) | Grade of pulmonary fibrosis, % (ICR strain mice) | Incidence of pulmonary fibrosis, % (ICR strain mice) | Incidence: number of mice suffering from pulmonary fibrosis (ICR strain mice) | Grade: total score of pulmonary fibrosis/total number of test animal (ICR strain mice) | Grade of pulmonary fibrosis, Ratio (ICR strain mice) | Incidence of pulmonary fibrosis, Ratio (ICR strain mice) | Grade of pulmonary fibrosis, % (ICR mice) | Incidence of pulmonary fibrosis, % (ICR mice) | Incidence: number of mice with pulmonary fibrosis/number of mice (ICR mice) | Grade: total score of pulmonary fibrosis/total number of samples (ICR mice)
Cc1c(N)nc(C(CC(N)=O)NCC(N)C(N)=O)nc1C(=O)NC(C(=O)NC(C)C(O)C(C)C(=O)NC(C(=O)NCCc1nc(-c2nc(C(=O)NCCCN(C)CCCNC(C)c3ccc(Cl)cc3)cs2)cs1)C(C)O)C(OC1OC(CO)C(O)C(O)C1OC1OC(CO)C(O)C(OC(N)=O)C1O)c1cnc[nH]1 (centres unmarked) [compound 14, 3-{N--Methyl-N--[3'-(1"-p-chlorophenylethylamino)propyl]amino}propylaminoBLM] | 16959 mcg potency per mg | 5459 mcg potency per mg | 0.52 µg/mL | 11% | 22% | 2/9 | 3/27 | 0.13 | 0.35 | 24% | 57% | 4/7 | 5/21
Cc1c(N)nc(C(CC(N)=O)NCC(N)C(N)=O)nc1C(=O)NC(C(=O)NC(C)C(O)C(C)C(=O)NC(C(=O)NCCc1nc(-c2nc(C(=O)NCCCN(C)CCCNCC(c3ccccc3)c3ccccc3)cs2)cs1)C(C)O)C(OC1OC(CO)C(O)C(O)C1OC1OC(CO)C(O)C(OC(N)=O)C1O)c1cnc[nH]1 (centres unmarked) [compound 17, 3-{N--Methyl-N--[3'-(2",2"-diphenylethylamino)propyl]amino}propylaminoBLM] | 21084 mcg potency per mg | 3554 mcg potency per mg | 1.00 µg/mL | 7% | 20% | 1/5 | 1/15 | 0.08 | 0.32 | 7% | 22% | 2/9 | 2/27
COc1ccc(CNCCCN(C)CCCNC(=O)c2csc(-c3csc(CCNC(=O)C(NC(=O)C(C)C(O)C(C)NC(=O)C(NC(=O)c4nc(C(CC(N)=O)NCC(N)C(N)=O)nc(N)c4C)C(OC4OC(CO)C(O)C(O)C4OC4OC(CO)C(O)C(OC(N)=O)C4O)c4cnc[nH]4)C(C)O)n3)n2)c(OC)c1 (centres unmarked) [compound 13, 3-{N--Methyl-N--[3'-(o,p-dimethoxybenzylamino)propyl]amino}propylaminoBLM] | 5351 mcg potency per mg | 5312 mcg potency per mg | 1.30 µg/mL | 11% | 33% | 2/6 | 2/18 | 0.13 | 0.53 | 15% | 22% | 2/9 | 4/27
Cc1c(N)nc(C(CC(N)=O)NCC(N)C(N)=O)nc1C(=O)NC(C(=O)NC(C)C(O)C(C)C(=O)NC(C(=O)NCCc1nc(-c2nc(C(=O)NCCCN(C)CCCNCc3ccc(Cl)cc3Cl)cs2)cs1)C(C)O)C(OC1OC(CO)C(O)C(O)C1OC1OC(CO)C(O)C(OC(N)=O)C1O)c1cnc[nH]1 (centres unmarked) [compound 8, 3-{N--Methyl-N--[3'-(o,p-dichlorobenzylamino)propyl]amino}propylaminoBLM] | 13013 mcg potency per mg | 2940 mcg potency per mg | 1.05 µg/mL | 7% | 11% | 1/9 | 2/27 | 0.08 | 0.18 | 25% | 25% | 2/8 | 6/24
Cc1c(N)nc(C(CC(N)=O)NCC(N)C(N)=O)nc1C(=O)NC(C(=O)NC(C)C(O)C(C)C(=O)NC(C(=O)NCCc1nc(-c2nc(C(=O)NCCCN(C)CCCNCc3ccc(Cl)c(Cl)c3)cs2)cs1)C(C)O)C(OC1OC(CO)C(O)C(O)C1OC1OC(CO)C(O)C(OC(N)=O)C1O)c1cnc[nH]1 (centres unmarked) [compound 7, 3-{N--Methyl-N--[3'-(m,p-dichlorobenzylamino)propyl]amino}propylaminoBLM] | 10601 mcg potency per mg | 4263 mcg potency per mg | 0.82 µg/mL | 4% | 11% | 1/9 | 1/27 | 0.05 | 0.18 | 13% | 30% | 3/10 | 4/30
Cc1c(N)nc(C(CC(N)=O)NCC(N)C(N)=O)nc1C(=O)NC(C(=O)NC(C)C(O)C(C)C(=O)NC(C(=O)NCCc1nc(-c2nc(C(=O)NCCCN(C)CCCN(Cc3cc(OCc4ccccc4)c(OCc4ccccc4)c(OCc4ccccc4)c3)Cc3cc(OCc4ccccc4)c(OCc4ccccc4)c(OCc4ccccc4)c3)cs2)cs1)C(C)O)C(OC1OC(CO)C(O)C(O)C1OC1OC(CO)C(O)C(OC(N)=O)C1O)c1cnc[nH]1 (centres unmarked) [compound 53, 3-{N--Methyl-N--[3'-(bis(3",4",5"-tribenzyloxybenzyl)amino)propyl]amino}propylaminoBLM] | 11 mcg potency per mg | 26 mcg potency per mg | 0.062 µg/mL | 0% | 0% | 0/9 | 0/27 | 0.00 | 0.00 | – | – | – | –
